Laboratory results from patent US9585933B2, “Therapeutic use of peptide inhibitors of NADPH oxidase; aerosolization as a delivery mechanism” (University of Pittsburgh—Of the Commonwealth System of …, priority 2011, dated 2017).
Where no end group is shown, it is not given here.

Molecular target: T1, Nox4 oxidase (COS-Nox4 lysate: hNox4, p22phox) (Homo sapiens, UniProt Q9NPH5)
T1 construct: expressed in transfected cells; host or cells: COS-22 cells (COS 7 with p22phox), stably transfected; cell lysate used
T1 sequence (Q9NPH5 1-578): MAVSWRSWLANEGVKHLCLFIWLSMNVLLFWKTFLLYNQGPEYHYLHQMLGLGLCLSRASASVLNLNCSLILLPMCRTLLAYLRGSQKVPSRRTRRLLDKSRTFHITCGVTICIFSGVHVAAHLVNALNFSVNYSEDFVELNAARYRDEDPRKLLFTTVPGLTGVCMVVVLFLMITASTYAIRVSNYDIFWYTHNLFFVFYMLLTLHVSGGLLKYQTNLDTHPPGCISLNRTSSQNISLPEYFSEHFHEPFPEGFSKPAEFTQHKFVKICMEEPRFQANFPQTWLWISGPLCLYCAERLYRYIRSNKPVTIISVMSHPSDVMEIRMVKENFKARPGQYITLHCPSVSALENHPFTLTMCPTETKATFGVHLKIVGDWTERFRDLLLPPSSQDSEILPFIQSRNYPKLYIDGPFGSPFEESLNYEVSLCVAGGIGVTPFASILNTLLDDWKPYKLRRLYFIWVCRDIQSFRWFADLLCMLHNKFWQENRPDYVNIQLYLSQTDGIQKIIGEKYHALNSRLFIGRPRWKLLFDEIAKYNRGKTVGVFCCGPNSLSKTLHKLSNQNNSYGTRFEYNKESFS
T1 sequence (P13498 2-195 partner limits assumed): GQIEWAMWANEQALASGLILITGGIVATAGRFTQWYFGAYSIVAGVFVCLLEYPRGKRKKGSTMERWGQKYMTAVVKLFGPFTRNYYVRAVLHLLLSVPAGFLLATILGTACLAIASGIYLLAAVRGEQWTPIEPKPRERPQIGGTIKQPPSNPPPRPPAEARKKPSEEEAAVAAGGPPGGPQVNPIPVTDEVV
Assay: Amplex Red assay, H2O2 production in COS-Nox4 lysates
Type: biochemical
Conditions: for rate of H2O2 production, Amplex red oxidation: 0 μM control 80.4±3.1
Method: To test this hypothesis, the inhibitory activity of Nox2ds was assessed in cell-free assays using reconstituted systems expressing either Nox1, 2 or 4 oxidase. Nox 2 oxidase was recapitulated by stably transfecting COS 7 cells with Nox2, p22phox, p47phox, and p67phox (aka COS-Nox2). Nox1 oxidase was obtained by transfecting COS 7 cells with Nox1, p22phox, NOXO1 and NOXA1 (COS-Nox1), and Nox 4 oxidase was regenerated by transfection of COS 7 cells with Nox4 and p22phox. […] Our new data support selectivity of Nox2ds peptide in differentiating the contribution of Nox2 vs. Nox1 and Nox4 NADPH oxidase and its potential clinical use in ameliorating cardiopulmonary diseases.
Cell transfection was carried out using Lipofectamine LTX and Plus reagent (Invitrogen), according to the manufacturer's instructions. COS-22 cells were transiently cotransfected with pcDNA 3.1-hNox1, pCMVsport 6-hNOXA1, and pcDNA3.1-hNoxO1 (COS-Nox1/NOXO1/NOXA1 cells). Cells were used 24 h after transfection. For stable transfection of Nox4, COS-22 cells were transfected with pcDNA3.1/Hygro-hNox4 (COS-Nox4 cells). COS-Nox4 cells were selected in complete medium supplemented with 0.2 mg/ml hygromycin B and 1.8 mg/ml G418. Stable transfectants were maintained in culture under the same conditions. Adherent cells were harvested by incubating with 0.05% trypsin/EDTA for 5 min at 37° C. After addition of DMEM/10% FBS to neutralize the trypsin, the cells were pelleted by centrifugation at 1000 g for 5 min at 4° C. and used for the experiments.
Hydrogen peroxide (H2O2) generation was quantified in COS-Nox4 cell lysates by Amplex Red. H2O2-producing activity was quantified in […] using Amplex red. Briefly, COS-Nox4 cells (5×10^7 cells/nil) were disrupted in ice-cold disruption buffer (PBS containing 0.1 mM EDTA, 10% glycerol, protease inhibitor cocktail, and 0.1 mM PMSF) by freeze/thaw cycles as we described above. Incubation of COS-Nox4 cell lysate with Nox2ds was performed in assay buffer (25 mM Hepes, pH 7.4, containing 0.12 M NaCl, 3 mM KCl, 1 mM MgCl2, 0.1 mM Amplex red, and 0.32 U/ml HRP) for 5 min at room temperature on an orbital shaker (120 movements/min), before the addition of 36 μM NADPH, to initiate H2O2 production. […] Fluorescence measurements were made using a Biotek Synergy 4 hybrid multimode microplate reader with a 530/25-excitation and a 590/35-emission filter. A standard curve of known H2O2 concentrations was developed using the Amplex red assay (as per the manufacturer's instructions) and was used to quantify H2O2 production in the COS-Nox4 cell-free system. Nox4 activity was obtained by subtracting nontransfected COS-22 cell lysate activity from COS-Nox4 cell lysate activity. The reaction was monitored at room temperature for 10 min, and the emission increase was linear during this interval.
H2O2 production was initiated by the addition of NADPH and measured by Amplex Red for 10 min.

Q: Which “inhibition of COS-Nox4 lysate H2O2 production (in words)” value does the source give for CSTRVRRQL-NH2 [Nox2ds, CSTRVRRQL] here?
A: Its value is “did not inhibit”.

Q: What about the “rate of H2O2 production, Amplex red oxidation” value (“rate of H2O2 production” for short) (0.1 μM peptide) of the same substance?
A: The value was 74.3±2.1 nmol H2O2/min/10^7 cell lysate equivalents.

Q: What about the “rate of H2O2 production” value (0.3 μM peptide) of the same substance?
A: Its value is 74.1±5.9 nmol H2O2/min/10^7 cell lysate equivalents.

Q: And the “rate of H2O2 production” value (1 μM peptide)?
A: Its value is 82.3±3.4 nmol H2O2/min/10^7 cell lysate equivalents.

Q: And the “rate of H2O2 production” value (3 μM peptide)?
A: Its value is 83.3±1.6 nmol H2O2/min/10^7 cell lysate equivalents.
